experiment: Human HepG2 cell viability assay in 384 well format; assay type: toxicity, cell-based; design: dose 125 nL, time 70.5 hour; concentration not given beside the values; conditions: HepG2 cells, read-out: Inhibition

Row | SMILES | cytotoxicity at 70.5 h [%]
1 | N#Cc1cccc(CN2CCO[C@@H]3CNC[C@@H]32)c1 | -1.26
2 | CNC(=O)N1Cc2cc(F)ccc2C2(CCN(C)CC2)C1 | -1.35
3 | O=C(c1cc[nH]n1)N1CC[C@@H]2CN(Cc3ccncc3)S(=O)(=O)[C@@H]2CC1 | -5.13
4 | CN(C)[C@@H]1CN(Cc2ccoc2)C[C@@H]2CCCO[C@@H]21 | -8.48
5 | CC(C)N1CC(C(=O)N2CCc3c(nc(CC4CC4)[nH]c3=O)C2)CC1=O (stereo not given) | -2.23
6 | CCC(C)(NCC(=O)NC(C)C)c1nccs1 (stereo not given) | -3.03
7 | Cc1ccc(-c2noc(C(C)(C)NS(C)(=O)=O)n2)cc1F | -2.69
8 | Cc1nc(C)n(CC2CCCN2CCCc2nc3ccccc3o2)n1 (stereo not given) | -5.85
9 | Cn1cc(C2CCCN2C(=O)Cc2coc(-c3ccccc3)n2)cn1 (stereo not given) | -7.27
10 | CC(NCc1cccc(COC2CCCC2)c1)c1cnn(C)c1 (stereo not given) | -3.04
11 | Cc1ncncc1C(=O)N1CCCC(n2ccnc2C)C1 (stereo not given) | 1.79
12 | CC(Cn1cccn1)NCc1csc(-c2cccs2)n1 (stereo not given) | -26
13 | Cc1cnn(C2CN(Cc3nnc(-c4ccccc4Cl)o3)C2)c1 | 5.37
14 | CO[C@@H]1CC[C@H]2[C@H]1OCCN2S(=O)(=O)C1CC1 | -9.16
15 | CC(=O)N1[C@H](Cn2cncn2)C[C@@H]2CN(Cc3cccnc3)CC[C@@H]21 | -2.89
16 | COCCO[C@H]1CCN(C(=O)c2ccno2)[C@H]1Cc1ccncc1 | -11.9
17 | CC(C)NC(=O)N1CCC2(CC1)CN(C(=O)NC(C)C)CCO2 | -10.3
18 | CN1C[C@@H](COCC2CC2)[C@H]2CCN(Cc3ccco3)CC[C@H]2C1=O | -5.7
19 | N#CCCN(CC(F)(F)F)C(=O)c1cc(-n2cccn2)ccn1 | -3.35
20 | Cc1nc(NCCc2ccccc2)cc(C(=O)N2CCCCC2)n1 | -0.559
21 | Cc1cc(C)n(CC2CCCN2C(=O)c2cccn3ccnc23)n1 (stereo not given) | -1.92
22 | COc1ccc(C2CNCCN2C(=O)c2nccc3ccccc23)cc1 (stereo not given) | 5.97

Row | SMILES | cytotoxicity at 70.5 h [%]
23 | Cc1ncc(CN2CCOC(c3ccc(-c4ccccc4F)cn3)C2)s1 (stereo not given) | 49.2
24 | O=C1CN(c2ccc(C(=O)N3CCc4ccccc43)cn2)CCN1 | -6.79
25 | COC(=O)C(C)NC(=O)CSCc1nc(O)c2cc(C(C)C)sc2n1 (stereo not given) | 6.75
26 | O=C(N[C@@H]1CC[C@@H](N2CCCC2)[C@@H]1O)c1cc2cccc(F)c2[nH]1 | -9.84
27 | Cc1cc(F)cc(CN2CCCn3nc(CNS(C)(=O)=O)cc3C2)c1 | 0.898
28 | Cc1cccc(CNC(=O)Nc2ccc3c(c2)CCCC(=O)N3)c1 | -1.4
29 | CNc1ccnc(N2CC[C@@](O)(C3CCOCC3)[C@H](C)C2)n1 | -7.76
30 | CN(C)CCN1CCOCC2(CCN(Cc3ccc[nH]3)CC2)C1 | 0.665
31 | CCc1ncnc2c1CCN(Cc1nccs1)CC2 | -7.4
32 | CC(C)NC(=O)C1CCN(C(C)C(=O)N2CCc3sccc3C2)CC1 (stereo not given) | -2.44
33 | COc1cc(OC)c(CNC(=O)NCC(=O)N2CCCC2)c(OC)c1 | -6.53
34 | O=C(CCN1CCCCO1)NC1CCCN(CC2CCCCC2)C1 (stereo not given) | -8.52
35 | CCOCCCNc1ncc(-c2cccc(F)c2)c(-c2nccn2C)n1 | -3.33
36 | COC(=O)c1ccc(N2CCN(CCC#N)C(C)C2)cc1 (stereo not given) | 11.4
37 | O=C(c1ccc(Cn2cc(Br)cn2)cc1)N1CCCC1 | 30.7
38 | Cc1nnc2ccc(NCC3(N4CCCCC4)CCOCC3)nn12 | -4.4
39 | CC(C)OCCCNC(=O)C1CC(=O)N(c2n[nH]c3cccc(F)c23)C1 (stereo not given) | -23.7
40 | O=c1cc(-c2cccnc2)nc(-c2ccc(CN3CC[C@@H](O)C3)cc2)[nH]1 | 12.1
41 | Cn1nc2c(cc1=O)CN(Cc1nc(-c3ccccn3)no1)CC2 | -9
42 | Cc1ccccc1C(=O)N1CCOCC1CN(C)C (stereo not given) | -9.03
43 | COc1ccc2c(c1)c(C(=O)Nc1cc(C)n(C)n1)cn2C(C)C | -0.21
44 | Cc1ncsc1C(=O)OCCN1CCCCCC1=O | -8.25

Row | SMILES | cytotoxicity at 70.5 h [%]
45 | CC(O)CN1CCC(CNCc2cccc(Br)c2)CC1 (stereo not given) | 24.8
46 | CCC(=O)N1CCC(Cc2ccccc2-c2ccccc2F)(C(N)=O)C1 (stereo not given) | -8.54
47 | O=C(N1CCCO1)[C@]12COC[C@H]1CN(Cc1nccs1)C2 | -7.21
48 | CNC(=O)C1CCC2(CCN(c3nncs3)CC2)CO1 (stereo not given) | -2.99
49 | CN(C)C(=O)N1CCCC2(CCN(c3ccsc3)C2=O)C1 (stereo not given) | -6.16
50 | Cc1cccc(CN2CCC(NS(C)(=O)=O)CC2)n1 | -8.65
51 | CC(C)c1ccc(CS(=O)(=O)CC(=O)NCc2ccccc2F)cc1 | -17.3
52 | CCC(C)NC(=O)c1cccc(CNCc2csc(C(C)C)n2)c1 (stereo not given) | -89.9
53 | CC(C)NC(=O)c1ccc2c(c1)C1(CCN(C)CC1)C(=O)N2 | 2.1
54 | NS(=O)(=O)c1cccnc1NCc1ccco1 | -4.56
55 | CCC(=O)Nc1ccc(C(C)Nc2nc3c(cnn3C)c(=O)[nH]2)cc1 (stereo not given) | -5.84
56 | CCC(C)(C)CC(=O)NC(C)C(=O)Nc1ccc(-n2cncn2)cc1 (stereo not given) | -81.3
57 | CN1CCCC(CNC(=O)CN(C)S(=O)(=O)c2cccnc2)C1 (stereo not given) | 6.09
58 | CCOC1CCN(C(=O)NCc2ccc(C(=O)N(C)C(C)C)cc2)CC1 | -18.5
59 | CCOC(=O)C1CCCN(c2ccc(-c3nc(C)no3)cn2)C1 (stereo not given) | -4.38
60 | O=S(=O)(NCc1cc2n(n1)CCNC2)c1ccc(OC(F)(F)F)cc1 | -16.5
61 | CCN(CC1CCOC1)C(=O)Cn1nnn(-c2cccs2)c1=O (stereo not given) | -15.9
62 | CC(C)(C)C(=O)Nc1ccc(Oc2ccsc2C(=O)O)cc1 | 1.54
63 | Cc1nc(C)c(C(=O)N2CCC(O)(Cn3ccc4ccncc43)CC2)s1 | 1.41
64 | CCOc1ccc(C(C)NC(=O)N2CCC(C(N)=O)CC2)cc1OC (stereo not given) | -10.4
65 | O=C(NC[C@H]1OC[C@@H](NC2COC2)[C@@H]1O)C1CCCC1 | -8.61
66 | CCc1nnsc1C(=O)N1CCN(CC(O)C(C)(C)C)CC1 (stereo not given) | -10.2

Row | SMILES | cytotoxicity at 70.5 h [%]
67 | NC(=O)C1CCN(Cc2cccc(NC(=O)c3ccsc3)c2)CC1 | 0.035
68 | c1cncc(CN2CCC(c3ccc4c(c3)OCO4)CC2)c1 | 19.4
69 | CN(C)C(=O)[C@H]1C[C@H]2OCC[C@H]2N(Cc2ccccn2)C1 | -2.93
70 | CCc1cn[nH]c1C1CCCN(C(=O)c2cnc(NC(C)C)nc2)C1 (stereo not given) | -5.16
71 | Cc1ccccc1OCC1CCCN(C(=O)Cc2c[nH]c(=O)[nH]c2=O)C1 (stereo not given) | -0.878
72 | c1ccc(-c2nc(CNC3CCc4ncnn4C3)co2)cc1 (stereo not given) | 1.4
73 | CCc1nccn1CC(=O)N1CCN(C2CCc3ccccc3C2)CC1 (stereo not given) | -13.3
74 | CCCN1CCC(Cc2noc(-c3cc4cccnc4nc3C)n2)CC1 | 0.578
75 | CCOCC1CC2(CCN(C(=O)c3ccccc3F)CC2)CO1 (stereo not given) | 0.964
76 | COc1ccc(C[C@H]2CN(c3cc(OC)ncn3)CC[C@@H]2OC)cc1 | 4.78
77 | Cc1cccnc1N1CC2(CCN(Cc3cnn(C)c3)C2)C1 | -10.7
78 | O=C(NCCc1cccc(F)c1)C1(n2cnnn2)CCCCC1 | -3.65
79 | CNc1nc(CNC(=O)Nc2cccc(Cl)c2OC)cs1 | -3.54
80 | CCN(C(=O)c1ccc2nnc(C3CCN(C)C3)n2c1)C(C)C (stereo not given) | -11.3
81 | COCc1noc(-c2nn(-c3ccc(F)c(F)c3)c3c2CCC3)n1 | 26
82 | CN(Cc1ccsc1)C(=O)Nc1ccc(S(C)(=O)=O)cc1 | -1.57
83 | CC(C)CCN1CCC2(CC1)NCc1ccccc1NC2=O | -7.94
84 | CCCN1CCC2(C1)c1ccccc1S(=O)(=O)N2Cc1ccccc1 (stereo not given) | 3.08
85 | CC(C)CN1CCC2(CCCNC2)C1=O (stereo not given) | -10.9
86 | Cc1nccn1C1CCCN(C(=O)c2ccc3c(c2)NC(=O)CO3)C1 (stereo not given) | -5.24
87 | CCN(CCNC(=O)Nc1nnc(C)s1)C(=O)OC(C)(C)C | -5.88
88 | CSc1cccc(CN2CCC(CCC(=O)NC3CC3)CC2)c1 | -7.44

Row | SMILES | cytotoxicity at 70.5 h [%]
89 | Cc1cc(-c2nn(C)c(Cl)c2CN2CCOCC2CC(N)=O)no1 (stereo not given) | 6.65
90 | CN(C)CC1(O)CCN(C(=O)Cc2ccc3c(c2)CCC3)C1 (stereo not given) | 0.63
91 | Cn1ncc2c(N3CCCC(C)(O)C3)nc(C(C)(C)C)nc21 (stereo not given) | -7.72
92 | C[C@H]1C[C@H]2CN(S(=O)(=O)c3ccc(F)cc3)CC[C@@H]2O1 | -3.04
93 | Cc1ccc(-c2nnc(CN3CCCC(Cn4cncn4)C3)o2)cc1 (stereo not given) | -1.97
94 | CN1C(=O)CC(c2cnn(C)c2)C12CCN(C(=O)c1ccnnc1)CC2 (stereo not given) | -9.97
95 | Cc1nc(C(C)(C)C)sc1C(=O)NCCn1ccnc1 | -7.91
96 | Cn1cc(CN2CC[C@H]3O[C@H](C(=O)NC4CC4)CC[C@H]32)c2ccccc21 | -3.36
97 | O=C1CO[C@@H]2CN(CC3CCOCC3)C[C@H]2N1Cc1ccncc1 | -2.17
98 | Cc1cnc(N2C[C@H]3C[C@H](C(=O)N(C)C)[C@@H](C2)O3)nc1 | -13.5
99 | O=C(c1ccc[nH]1)N1CC[C@@H](OCC2CC2)[C@@H]1Cc1cccnc1 | 0.146
100 | COc1ccc(OCCCN2CCOC(Cn3cccn3)C2)cc1 (stereo not given) | 15.4
101 | Cn1cccc1C(=O)N1C[C@@H]2C[C@@H](c3nc(C4CC4)cs3)O[C@@H]2C1 | 4.85
102 | COC(=O)c1ccccc1NC(=O)c1nc2ccccc2n(C)c1=O | 32.8
103 | COc1cc(OC)c2c(=O)oc(CC(O)CC(C)=O)cc2c1 (stereo not given) | 9.76
104 | Cc1nn(C)c(C)c1C1CCCN1C(=O)c1ccc(C(N)=O)s1 (stereo not given) | 17.5
105 | Cc1cc(C)n(CC2CN(CC(=O)Nc3cccnc3)CCO2)n1 (stereo not given) | -4.57
106 | O=C(NCc1nncn1C1CC1)c1ccc(F)c(COCC2CC2)c1 | 7.64
107 | COc1ccc(CCC2CCCCN2)cc1 (stereo not given) | 24.2
108 | COCC(=O)N1CCC2(CC1)CC(CC(=O)NC1CC1)c1ccccc12 (stereo not given) | -18.5
109 | CCCC(O)CN1CCC(=O)N(Cc2ccccc2)Cc2ccccc21 (stereo not given) | 2.6
110 | CC(=O)N1CCC(CCNC(C)c2cc(F)cc(F)c2)CC1 (stereo not given) | -3.81

Source: ChEMBL document CHEMBL3507680, “University of Dundee, Gates Library screen for HepG2 cell viability”
